In brackets after ≈: the same amount, converted by molar mass.
What was measured:
[1] = system: SW480 cells; experiment: Cell viability analysis using MTT assay; format: cell-based, human
Procedure: The human colon cancer cell line, SW480, was purchased from the American Type Culture Collection (Manassas, Va., USA) and cultured in an RPMI (Roswell Park Memorial Institute)-1640 medium (Gibco-BRL) to which 10% heat-inactivated fetal bovine serum (FBS) and penicillin/streptomycin at 37° C. humidified atmosphere of 5% CO2. The cells were cultured in a 100 mm culture dish at a concentration of 4×10^5 cells for experiments.
The influence of 2-methoxy-4-(3-(4-methoxyphenyl)prop-1-en-1-yl)phenol (MMPP) on the viability of cells was confirmed by colorimetric and metabolic activity assay using MTT [3-(4,5-dimethylthiazol-2-yl)-2,5-diphenyltetrazolium bromide]. Put briefly, cells were inoculated on 96-well plates at 1×10^4 cells/well and cultured for 24 hours. Cells were treated with 2.5 to 10 μg/ml MMPP or DMSO (dimethyl sulfoxide), a solvent for MMPP. After culturing for 24 hours, the medium including MMPP was removed and replaced with 100 μl of fresh medium. After culturing for 1.5 hours, medium including MTT was removed and 200 μl DMSO was added to each well. The plate was then agitated at a weak intensity until the color reaction of the plate became uniform. Colorimetric evaluation was performed using a microplate reader at 540 nm.
The inhibitory effect of MMPP on the growth of human colon cancer cells was examined using SW480 cells.

[2] = system: SW480 cells; experiment: Western blot analysis of cell cycle regulatory and apoptosis signal proteins; format: cell-based, human
Procedure: Lysates, cytosolic and nuclear extracts of whole cells were obtained. SDS-PAGE and western blot analysis were performed as described in published documents 1 and 2 [1, 2]. Put briefly, the cells of 5×10^5 cells/well were inoculated in 6-well plates and cultured for 24 hours. Cells were then treated with MMPP or DMSO for 24 hours. The treated cells were washed twice with PBS and lysed. Proteins from the lysed cells were separated on 10 to 15% SDS-PAGE. Proteins were transferred to a PVDF membrane and the PVDF membrane was blocked with TBS/T-buffer including 5% defatted milk for 2.5 hours at room temperature. The membrane to which the proteins are transferred was analyzed by using a mouse monoclonal antibody for as a primary antibody. Protein expression was visualized using a chemiluminescence reagent (Amersham Pharmacia Biotech, Inc., Buckinghamshire, UK) and measured using a in which a CCD camera (Fusion-FX, Fisher BioTech, Ltd., Wembley, Australia) is installed.
2. Effect of MMPP on Cell Cycle Regulatory Signal and Apoptosis Signal In order to investigate the basic mechanism of the growth inhibitory effect of colon cancer cells of MMPP, it was examined whether MMPP treatment affects cell cycle regulation and apoptosis signals in SW480 cells.

[3] = system: SW480 xenografted mouse; experiment: Anticancer activity in a colon cancer xenograft animal model; format: in vivo; conditions: twice a week for 3 weeks, nude mice
[4] = target: T1, STAT3 (Homo sapiens, UniProt P40763); experiment: DNA binding activity of STAT3 using EMSA; format: cell-based; conditions: SW480 cells exposed for 1 hour
T1 construct: endogenous in cells; host or cells: SW480 cells (nuclear extract)
Procedure: The DNA binding activity of STAT3 was measured using an electrophoretic mobility shift assay (EMSA) as described in document 1. Put briefly, cells were cultured in a 100 mm culture dish at 37° C. for 24 hours and then treated with MMPP or DMSO. After incubation for 24 hours, the cells were washed three times with cold PBS and nuclear extracts for EMSA experiments were prepared. Relative thickness of the DNA-protein binding band was quantified using Lab Works 4.0 software (UVP Inc., Upland, Calif., USA) after scanning with densitometry.
In order to determine whether MMPP reacted with STAT3 to inhibit DNA binding activity of STAT3, MMPP was exposed to SW480 cells for 1 hour and the DNA binding activity of STAT3 was measured.

T1 sequence (P40763 whole entry): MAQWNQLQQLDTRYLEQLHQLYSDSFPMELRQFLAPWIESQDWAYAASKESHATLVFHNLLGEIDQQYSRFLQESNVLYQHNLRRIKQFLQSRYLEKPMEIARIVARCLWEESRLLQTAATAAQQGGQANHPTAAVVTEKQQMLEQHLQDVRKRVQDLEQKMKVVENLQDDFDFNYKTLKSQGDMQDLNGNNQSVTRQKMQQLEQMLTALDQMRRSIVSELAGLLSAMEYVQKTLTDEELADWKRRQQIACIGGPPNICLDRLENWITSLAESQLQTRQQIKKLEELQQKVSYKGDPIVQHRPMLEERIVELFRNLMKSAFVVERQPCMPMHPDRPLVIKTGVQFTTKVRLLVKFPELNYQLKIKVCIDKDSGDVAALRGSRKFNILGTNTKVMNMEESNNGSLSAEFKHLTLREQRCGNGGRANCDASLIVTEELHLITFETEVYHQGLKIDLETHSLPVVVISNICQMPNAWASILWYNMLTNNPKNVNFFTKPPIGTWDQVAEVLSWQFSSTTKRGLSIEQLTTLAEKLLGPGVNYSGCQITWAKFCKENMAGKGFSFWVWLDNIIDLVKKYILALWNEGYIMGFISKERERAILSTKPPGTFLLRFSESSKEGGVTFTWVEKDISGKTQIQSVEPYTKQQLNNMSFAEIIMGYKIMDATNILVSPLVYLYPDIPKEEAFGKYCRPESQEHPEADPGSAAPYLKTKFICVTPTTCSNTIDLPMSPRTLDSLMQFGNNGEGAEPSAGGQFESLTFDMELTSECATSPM

COc1ccc(C/C=C/c2ccc(O)c(OC)c2)cc1 [MMPP, 2-methoxy-4-(3-(4-methoxyphenyl)propyl-1-en-1-yl)phenol]
cell density compared to the control group [1]: significantly reduced cell density | IC50 ([1]; Homo sapiens, MMPP 2.5 to 10 μg/ml, treated for 24 hours, MTT, read-out: IC50 value, inhibition of the growth of SW480 cells): 5.9 µg/mL (≈ 21.8 µM) | expression of cell cycle regulatory signal proteins [2]: effectively reduced the expression | expression of pro-apoptotic proteins cleaved caspase-3, cleaved caspase-8 and Bax [2]: increased the expression | expression of the anti-apoptotic protein Bcl-2 [2]: reduced the expression | Tumor volume compared to the control group ([3]; 2.5 mg/kg intraperitoneal): 65% | Tumor volume compared to the control group ([3]; 5 mg/kg intraperitoneal): 35% | DNA binding activity of STAT3 [4]: effectively inhibited DNA binding activity of STAT3
